Laboratory results taken from publication PMC4051504, “Structural and functional analysis of the human spliceosomal DEAD-box helicase Prp28” (Acta Crystallographica Section D: Biological Crystallography, 2014).
pKd: −log10 of the molar value.

Molecular target: T1, hPrp28ΔN (Homo sapiens, UniProt Q9BUQ8)
T1 construct: gene DDX23; helicase domain plus short N-terminal extension, residues 338-820; GST tag cleaved with PreScission protease; E. coli BL21 Star (DE3)
T1 sequence (Q9BUQ8 338-820): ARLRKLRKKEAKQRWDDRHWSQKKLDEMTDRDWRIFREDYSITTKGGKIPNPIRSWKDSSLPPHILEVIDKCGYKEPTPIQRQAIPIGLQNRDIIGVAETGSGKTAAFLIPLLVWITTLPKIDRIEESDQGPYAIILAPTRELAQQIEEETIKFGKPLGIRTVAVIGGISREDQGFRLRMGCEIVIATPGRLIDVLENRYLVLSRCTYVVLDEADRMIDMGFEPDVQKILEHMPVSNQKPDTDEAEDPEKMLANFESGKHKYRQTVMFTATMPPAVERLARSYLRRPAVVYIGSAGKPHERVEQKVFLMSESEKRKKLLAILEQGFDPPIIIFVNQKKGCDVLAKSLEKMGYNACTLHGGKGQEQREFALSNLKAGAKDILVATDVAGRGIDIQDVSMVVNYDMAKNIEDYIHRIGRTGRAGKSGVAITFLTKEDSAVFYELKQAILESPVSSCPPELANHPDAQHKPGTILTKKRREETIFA
Experiment: fluorescence titration, Trp emission at […] nm (excitation […] nm)
Format: binding

pKd: < 3.40
SMILES: CNc1ccccc1C(=O)O[C@H]1[C@@H](O)[C@H](n2cnc3c(N)ncnc32)O[C@@H]1CO[P@@](=O)(O)O[P@](=O)(O)OP(=O)(O)O [mant-ATP]
